Molecules are shown by their SMILES.

Chain of recombinant protein Wee-1 (P30291 whole entry): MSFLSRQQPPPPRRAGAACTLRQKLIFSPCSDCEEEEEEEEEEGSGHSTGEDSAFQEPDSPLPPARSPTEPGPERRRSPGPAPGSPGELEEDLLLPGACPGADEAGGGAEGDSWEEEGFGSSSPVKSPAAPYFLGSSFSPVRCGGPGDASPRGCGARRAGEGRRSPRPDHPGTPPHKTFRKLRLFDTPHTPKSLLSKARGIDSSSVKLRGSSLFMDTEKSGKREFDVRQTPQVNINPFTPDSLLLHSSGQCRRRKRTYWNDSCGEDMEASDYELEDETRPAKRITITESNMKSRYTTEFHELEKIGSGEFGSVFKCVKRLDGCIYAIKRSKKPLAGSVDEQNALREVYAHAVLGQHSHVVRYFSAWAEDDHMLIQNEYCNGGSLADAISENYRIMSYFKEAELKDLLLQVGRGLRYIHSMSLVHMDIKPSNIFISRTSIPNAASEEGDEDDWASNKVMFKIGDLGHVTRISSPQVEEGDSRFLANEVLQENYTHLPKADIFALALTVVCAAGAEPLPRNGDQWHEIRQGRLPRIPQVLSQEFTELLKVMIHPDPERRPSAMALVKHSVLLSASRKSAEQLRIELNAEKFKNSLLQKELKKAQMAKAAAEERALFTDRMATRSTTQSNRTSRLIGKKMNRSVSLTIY

This test has as its target recombinant protein Wee-1 (Homo sapiens (Human), UniProt P30291). Put plainly: HTRF assay for inhibiting enzymatic activity of recombinant protein Wee-1. In kind it is biochemical. Conditions: compounds up to 200 nM, read-out: (IC50) Inhibitory activity against recombinant protein Wee-1. The method, then:
The inhibitory effect of the compounds on the enzyme activity of recombinant protein Wee-1 was determined by HTRF. The procedures are as follows:
After DMSO or serially diluted compounds (up to 200 nM, 1:5 diluted) and recombinant proteins were co-incubated in a kinase buffer at 37° C. for 30 min before Fluorescein-PolyGAT and ATP were added, and the reaction was initiated by addition of a substrate. After incubation at room temperature for 90 min, an antibody and a detection solution were added, and after further incubation at room temperature for 60 min, fluorescence values were detected (excitation wavelength: 340 nm, emission wavelengths: 495 and 520 nm). The 520 nm/495 nm fluorescence intensity ratio value was calculated, and compared with that of the DMSO group, and then the inhibition percentages and IC50 values of the compounds were calculated.
On the technique in general: Time-resolved FRET reads energy transfer from a long-lived donor to a nearby acceptor.
What is called IC50 is the point on the concentration scale where inhibition reaches its midpoint. With `CN1CCc2c(cc(Nc3ncc(C#N)c(Nc4cccc(N=S(C)(C)=O)n4)n3)cc2C(F)F)C1` [Compound 21], the IC50 was no more than 0.01 µM.

As to `CCOc1cc(Nc2ncc(C#N)c(Nc3cccc(N=S(C)(C)=O)n3)n2)cc2c1CCN(C)C2` [Compound 23], the IC50 was no more than 0.01 µM.

Take `CC(C)Oc1cc(Nc2ncc(C#N)c(Nc3cccc(N=S(C)(C)=O)n3)n2)cc2c1CCN(C)C2` [Compound 24]: the IC50 is no more than 0.01 µM.

Take `CN1CCc2c(Cl)cc(Nc3ncc(C#N)c(Nc4cccc(N=S(C)(C)=O)n4)n3)cc2C1` [Compound 26]: the IC50 was no more than 0.01 µM.

As for `CN1CCc2c(Br)cc(Nc3ncc(C#N)c(Nc4cccc(N=S(C)(C)=O)n4)n3)cc2C1` [Compound 27], the IC50 is no more than 0.01 µM.

In the case of `Cc1cc(Nc2ncc(C#N)c(Nc3cccc(N=S(C)(C)=O)n3)n2)cc2c1C1(CC1)CN(C)C2` [Compound 30], the IC50 is no more than 0.01 µM.

Take `CCc1cc(Nc2ncc(C#N)c(Nc3cccc(N=S(C)(C)=O)n3)n2)cc2c1C1(CC1)CN(C)C2` [Compound 31]: the IC50 was no more than 0.01 µM.

With `CN1Cc2cc(Nc3ncc(C#N)c(Nc4cccc(N=S(C)(C)=O)n4)n3)cc(C3CC3)c2C2(CC2)C1` [Compound 32], the IC50 was no more than 0.01 µM.

Turning to `CC(C)c1cc(Nc2ncc(C#N)c(Nc3cccc(N=S(C)(C)=O)n3)n2)cc2c1C1(CC1)CN(C)C2` [Compound 33], the IC50 was no more than 0.01 µM.

As to `COc1cc(Nc2ncc(C#N)c(Nc3cccc(N=S(C)(C)=O)n3)n2)cc2c1C1(CC1)CN(C)C2` [Compound 34], the IC50 was no more than 0.01 µM.

Take `CN1Cc2cc(Nc3ncc(C#N)c(Nc4cccc(N=S(C)(C)=O)n4)n3)ccc2C(C)(C)C1` [Compound 35]: the IC50 was no more than 0.01 µM.

`Cc1cc(Nc2ncc(C#N)c(Nc3cccc(N=S(C)(C)=O)n3)n2)cc2c1C(C)(C)CN(C)C2` [Compound 36]: the IC50 is no more than 0.01 µM.

For the compound `CCc1cc(Nc2ncc(C#N)c(Nc3cccc(N=S(C)(C)=O)n3)n2)cc2c1C(C)(C)CN(C)C2` [Compound 37], the IC50 was no more than 0.01 µM.

Take `CC(C)c1cc(Nc2ncc(C#N)c(Nc3cccc(N=S(C)(C)=O)n3)n2)cc2c1C(C)(C)CN(C)C2` [Compound 38]: the IC50 is no more than 0.01 µM.

Take `CN1Cc2cc(Nc3ncc(C#N)c(Nc4cccc(N=S(C)(C)=O)n4)n3)cc(C3CC3)c2C(C)(C)C1` [Compound 39]: the half-inhibitory concentration (IC50) is no more than 0.01 µM.

For `COc1cc(Nc2ncc(C#N)c(Nc3cccc(N=S(C)(C)=O)n3)n2)cc2c1C(C)(C)CN(C)C2` [Compound 40], the IC50 is no more than 0.01 µM.

Consider `CN1CCc2c(cc(Nc3ncc(C#N)c(Nc4cccc(N=S(C)(C)=O)n4)n3)cc2N(C)C)C1` [Compound 44], for which the IC50 was no more than 0.01 µM.

With `CCN1CCc2ccc(Nc3ncc(C#N)c(Nc4cccc(N=S(C)(C)=O)n4)n3)cc2C1` [Compound 45], the IC50 was no more than 0.01 µM.

Turning to `CS(C)(=O)=Nc1cccc(Nc2nc(Nc3ccc4c(c3)CN(C3CC3)CC4)ncc2C#N)n1` [Compound 47], the IC50 was no more than 0.01 µM.

Turning to `CS(C)(=O)=Nc1cccc(Nc2nc(Nc3ccc4c(c3)CN(CCO)CC4)ncc2C#N)n1` [Compound 48], the IC50 is no more than 0.01 µM.

`COCCN1CCc2ccc(Nc3ncc(C#N)c(Nc4cccc(N=S(C)(C)=O)n4)n3)cc2C1` [Compound 49]: the IC50 was no more than 0.01 µM.

As for `CN(C)CCN1CCc2ccc(Nc3ncc(C#N)c(Nc4cccc(N=S(C)(C)=O)n4)n3)cc2C1` [Compound 50], the IC50 was no more than 0.01 µM.

For the compound `CN(C)C1CCc2ccc(Nc3ncc(C#N)c(Nc4cccc(N=S(C)(C)=O)n4)n3)cc2C1` (stereo not shown) [Compound 51], the IC50 was no more than 0.01 µM.

Turning to `CN(C)C1CCCc2ccc(Nc3ncc(C#N)c(Nc4cccc(N=S(C)(C)=O)n4)n3)cc2C1` (stereo not shown) [Compound 53], the IC50 is no more than 0.01 µM.

Turning to `CN1CCCc2ccc(Nc3ncc(C#N)c(Nc4cccc(N=S(C)(C)=O)n4)n3)cc2C1` [Compound 54], the 50% inhibitory concentration (IC50) is no more than 0.01 µM.

Regarding `CN(C)C1CC=Cc2ccc(Nc3ncc(C#N)c(Nc4cccc(N=S(C)(C)=O)n4)n3)cc2C1` (stereo not shown) [Compound 56], the IC50 is no more than 0.01 µM.

For the compound `CN1CCOc2ccc(Nc3ncc(C#N)c(Nc4cccc(N=S(C)(C)=O)n4)n3)cc2C1` [Compound 57], the IC50 is no more than 0.01 µM.

`CN1CCSc2ccc(Nc3ncc(C#N)c(Nc4cccc(N=S(C)(C)=O)n4)n3)cc2C1` [Compound 58]: the IC50 is no more than 0.01 µM.

On to `CN1Cc2ccc(Nc3ncc(C#N)c(Nc4cccc(N=S(C)(C)=O)n4)n3)cc2C1` [Compound 59], for which the 50% inhibitory concentration (IC50) is no more than 0.01 µM.

For the compound `CN1CCc2ccc(Nc3ncc(C#N)c(Nc4ccnc(N=S(C)(C)=O)c4)n3)cc2C1` [Compound 65], the IC50 was no more than 0.01 µM.

For `CN1CCc2ccc(Nc3ncc(C#N)c(Nc4cncc(N=S(C)(C)=O)c4)n3)cc2C1` [Compound 66], the IC50 was no more than 0.01 µM.

On to `CN1CCc2ccc(Nc3ncc(C#N)c(Nc4cc(N=S(C)(C)=O)ccn4)n3)cc2C1` [Compound 67], for which the IC50 is no more than 0.01 µM.

With `CN1CCc2ccc(Nc3ncc(C#N)c(Nc4cncc(N=S(C)(C)=O)n4)n3)cc2C1` [Compound 68], the IC50 was no more than 0.01 µM.

In the case of `CN1CCc2ccc(Nc3ncc(C#N)c(Nc4ccnc(N=S(C)(C)=O)n4)n3)cc2C1` [Compound 69], the IC50 is no more than 0.01 µM.

For `CN1CCc2ccc(Nc3ncc(C#N)c(Nc4nccc(N=S(C)(C)=O)n4)n3)cc2C1` [Compound 70], the IC50 was no more than 0.01 µM.

Regarding `CN1CCc2ccc(Nc3ncc(C#N)c(Nc4cc5ccccc5c(N=S(C)(C)=O)n4)n3)cc2C1` [Compound 71], the IC50 is no more than 0.01 µM.

For the compound `CN1CCc2ccc(Nc3ncc(C#N)c(Nc4nc(N=S(C)(C)=O)cc5ccccc45)n3)cc2C1` [Compound 72], the IC50 was no more than 0.01 µM.

`Cc1cc(Nc2ncc(C#N)c(Nc3ccc(F)c(N=S(C)(C)=O)n3)n2)cc2c1CCN(C)C2` [Compound 73]: the IC50 is no more than 0.01 µM.

On to `Cc1cc(Nc2ncc(C#N)c(Nc3cc(F)cc(N=S(C)(C)=O)n3)n2)cc2c1CCN(C)C2` [Compound 74], for which the IC50 was no more than 0.01 µM.

As for `Cc1cc(Nc2ncc(C#N)c(Nc3nc(N=S(C)(C)=O)ccc3F)n2)cc2c1CCN(C)C2` [Compound 75], the IC50 was no more than 0.01 µM.

Take `CN1CCc2ccc(Nc3ncc(C#N)c(-n4ccc5c(N=S(C)(C)=O)cccc54)n3)cc2C1` [Compound 76]: the IC50 was no more than 0.01 µM.

For the compound `CN1CCc2ccc(Nc3ncc(C#N)c(Nc4nc(N=S(C)(C)=O)cc5[nH]ccc45)n3)cc2C1` [Compound 81], the IC50 is no more than 0.01 µM.

With `CN1CCc2ccc(Nc3ncc(C#N)c(Nc4nc(N=S(C)(C)=O)cc5c4CCN5)n3)cc2C1` [Compound 82], the IC50 was no more than 0.01 µM.

For `CN1CCc2ccc(Nc3ncc(C#N)c(Nc4cc5c(c(N=S(C)(C)=O)n4)CCC5)n3)cc2C1` [Compound 83], the IC50 was no more than 0.01 µM.

Regarding `COc1ccc(Nc2nc(Nc3ccc4c(c3)CN(C)CC4)ncc2C#N)nc1N=S(C)(C)=O` [Compound 84], the IC50 was no more than 0.01 µM.

For the compound `CN1CCc2c(cc(Nc3ncc(C#N)c(Nc4cccc(N=S(C)(C)=O)n4)n3)cc2C(C)(C)C)C1` [Compound 86], the IC50 is no more than 0.01 µM.

Consider `Cc1cc(Nc2ncc(C#N)c(Nc3ccc4c(n3)N=S(C)(=O)C4)n2)cc2c1CCN(C)C2` (stereo not shown) [Compound 88], for which the IC50 is greater than 0.05 µM.

Turning to `CCc1cc(Nc2ncc(C#N)c(Nc3ccc(F)c(N=S(C)(C)=O)n3)n2)cc2c1CCN(C)C2` [Compound 89], the IC50 was no more than 0.01 µM.

For `COc1cc(Nc2ncc(C#N)c(Nc3ccc(F)c(N=S(C)(C)=O)n3)n2)cc2c1CCN(C)C2` [Compound 90], the IC50 was no more than 0.01 µM.

For `CC(C)c1cc(Nc2ncc(C#N)c(Nc3ccc(F)c(N=S(C)(C)=O)n3)n2)cc2c1CCN(C)C2` [Compound 91], the IC50 is no more than 0.01 µM.

As to `CCOc1cc(Nc2ncc(C#N)c(Nc3ccc(F)c(N=S(C)(C)=O)n3)n2)cc2c1CCN(C)C2` [Compound 92], the IC50 was no more than 0.01 µM.

Turning to `CC(C)Oc1cc(Nc2ncc(C#N)c(Nc3ccc(F)c(N=S(C)(C)=O)n3)n2)cc2c1CCN(C)C2` [Compound 93], the IC50 was no more than 0.01 µM.

In the case of `CN1CCc2c(cc(Nc3ncc(C#N)c(Nc4ccc(F)c(N=S(C)(C)=O)n4)n3)cc2C2CC2)C1` [Compound 94], the IC50 is no more than 0.01 µM.

Turning to `CN1CCc2c(cc(Nc3ncc(C#N)c(Nc4cccc(N=S(C)(C)=O)n4)n3)cc2N2CCC2)C1` [Compound 95], the IC50 was no more than 0.01 µM.

Turning to `CN1CCc2c(cc(Nc3ncc(C#N)c(Nc4ccc(F)c(N=S(C)(C)=O)n4)n3)cc2N2CCC2)C1` [Compound 96], the IC50 is no more than 0.01 µM.

For `CN1CCc2c(cc(Nc3ncc(C#N)c(Nc4ccc(F)c(N=S(C)(C)=O)n4)n3)cc2C2CCC2)C1` [Compound 98], the IC50 was no more than 0.01 µM.

Regarding `CN1CCc2c(cc(Nc3ncc(C#N)c(Nc4ccc(F)c(N=S(C)(C)=O)n4)n3)cc2C2CCCC2)C1` [Compound 99], the IC50 is no more than 0.01 µM.

For `CN1CCc2c(cc(Nc3ncc(C#N)c(Nc4ccc(F)c(N=S(C)(C)=O)n4)n3)cc2C2=CCCC2)C1` [Compound 100], the IC50 is no more than 0.01 µM.

Regarding `CN1CCc2c(cc(Nc3ncc(C#N)c(Nc4ccc(F)c(N=S(C)(C)=O)n4)n3)cc2C2(C)CC2)C1` [Compound 102], the concentration for half-maximal inhibition (IC50) is no more than 0.01 µM.

Turning to `CN1CCc2ccc(Nc3ncc(C#N)c(Nc4cccc(N=S(C)(C)=O)n4)n3)cc2C12CC2` [Compound 103], the IC50 was no more than 0.01 µM.

As for `CN1CCc2ccc(Nc3ncc(C#N)c(Nc4cccc(N=S(C)(C)=O)n4)n3)cc2C1(C)C` [Compound 104], the IC50 is no more than 0.01 µM.

As for `CN1CCc2c(cc(Nc3ncc(C#N)c(Nc4cccc(N=S(C)(C)=O)n4)n3)cc2-c2ccoc2)C1` [Compound 114], the IC50 was no more than 0.01 µM.

With `CN1CCc2c(CC3CCC3)cc(Nc3ncc(C#N)c(Nc4cccc(N=S(C)(C)=O)n4)n3)cc2C1` [Compound 125], the IC50 is no more than 0.01 µM.

Regarding `CN1CCc2c(cc(Nc3ncc(C#N)c(Nc4cccc(N=S(C)(C)=O)n4)n3)cc2-c2ccncc2)C1` [Compound 126], the IC50 is no more than 0.01 µM.

(Values after patent US20240158369A1, “PYRIMIDINE COMPOUND AS WEE-1 INHIBITOR” (WIGEN BIOMEDICINE TECHNOLOGY (SHANGHAI) CO., LTD., priority 2021, published 2024).)
